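Tested at 5 concentrations; 48 h exposure; 96-well plates; endpoints linearly interpolated, else capped at highest concentration. Abbreviation: GI50, concentration required for 50% inhibition of growth.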 Activity calls are given as the source filed them. Rule as the data show it: active = GI50 up to about 1.1 µM and inactive = higher.

The results in this text go back to ChEMBL document CHEMBL1201862, “PubChem BioAssay data set” (2004).

Among the test systems are SK-OV-3; HL-60; SNB-75; TK-10; ACHN; MOLT-4; SNB-19; CCRF-CEM; SW-620; CAKI-1; SK-MEL-5; IGROV-1; DU-145; COLO 205; SF-295; Malme-3M; EKVX; HCT-116; NCI-H522; A498.
Common to all, as to assay: inhibition of tumour cell growth, NCI panel, 48 h

As for `COP(=O)(OC)C(C)(C)NC(=O)NC(F)(F)F`, the GI50 in the test with SK-OV-3, with HL-60, in the test with SNB-75, with TK-10, with ACHN and with MOLT-4 was > 100 µM (inactive) throughout. In addition, the GI50 in the test with SNB-19 is 70.1 µM (inactive); with CCRF-CEM, > 100 µM (inactive); with SW-620, > 100 µM (inactive); in the test with CAKI-1, 0.01 µM (active); with SK-MEL-5, > 100 µM (inactive); in the test with IGROV-1, > 100 µM (inactive). For the same compound, the GI50 with DU-145, in the test with COLO 205, in the test on SF-295, in the test with Malme-3M, in the test with EKVX and in the test on HCT-116 was > 100 µM (inactive) each time.

As to `CCNC1=C(NC(=O)c2ccccc2)C(=O)c2ccccc2C1=O`, the GI50 in the test on SK-OV-3 is 24 µM (inactive); with HL-60, 36.3 µM (inactive); with TK-10, 98.4 µM (inactive); in the test with MOLT-4 it was 63.4 µM (inactive); in the test on SNB-19 it was 83.2 µM (inactive); in the test on CCRF-CEM it was 70.1 µM (inactive). Moreover, the GI50 was 23.4 µM (inactive) in the test with SW-620; > 10 µM (inactive) with SK-MEL-5; 46.9 µM (inactive) in the test on IGROV-1; 11.2 µM (inactive) with NCI-H522; 57 µM (inactive) in the test on DU-145; 16.6 µM (inactive) in the test with COLO 205. Besides, the GI50 with SF-295 is 32.4 µM (inactive); with Malme-3M, 16.8 µM (inactive); with HCT-116 it was 25.8 µM (inactive).

With `Cc1cccc(Br)[n+]1[O-]`, the GI50 with SK-OV-3, in the test on SNB-75, in the test with TK-10, in the test on ACHN, in the test on MOLT-4 and in the test with SNB-19 was > 100 µM (inactive) in each case. Also, the GI50 with CCRF-CEM, with SW-620, in the test on CAKI-1, in the test with SK-MEL-5, in the test with IGROV-1 and in the test on NCI-H522 was > 100 µM (inactive) each time. In addition, the GI50 in the test on DU-145, with COLO 205, in the test with SF-295, in the test with Malme-3M, in the test on EKVX and in the test on HCT-116 was > 100 µM (inactive) each time.

On to `NC(=O)NCCCC(NC(=O)OCCCCCn1ccc(=O)[nH]c1=O)C(=O)O` (centres undefined), for which the GI50 in the test with SK-OV-3, with HL-60, with SNB-75, with TK-10, with ACHN and in the test with MOLT-4 was > 100 µM (inactive) in each case. Moreover, the GI50 was > 100 µM (inactive) in the test on SNB-19; > 100 µM (inactive) in the test with CCRF-CEM; > 100 µM (inactive) in the test on SW-620; > 100 µM (inactive) in the test with CAKI-1; 23.1 µM (inactive) in the test with IGROV-1; > 100 µM (inactive) with DU-145. Besides, the GI50 in the test with COLO 205, in the test with SF-295, with EKVX and in the test with HCT-116 was > 100 µM (inactive) throughout.

With `CC(=O)c1ccccc1NC(=O)C(=O)C(C(=O)c1ccccc1-c1ccccc1)C1OC(=O)c2ccccc21` (centres undefined), the GI50 was 31.8 µM (inactive) in the test with SK-OV-3; 23.9 µM (inactive) in the test with HL-60; 25.5 µM (inactive) in the test on SNB-75; 14.9 µM (inactive) in the test on TK-10; 22.5 µM (inactive) with ACHN; 24.8 µM (inactive) in the test with MOLT-4. Moreover, the GI50 in the test on SNB-19 was 22.1 µM (inactive); in the test on CCRF-CEM it was 25.1 µM (inactive); in the test with SW-620, 34.3 µM (inactive); with CAKI-1 it was 37.8 µM (inactive); in the test with A498, 20.5 µM (inactive); in the test on SK-MEL-5 it was 19.1 µM (inactive). Also, the GI50 was 22.2 µM (inactive) in the test with IGROV-1; 14.7 µM (inactive) with NCI-H522; 23.2 µM (inactive) in the test on COLO 205; 22.2 µM (inactive) in the test with SF-295; 15.5 µM (inactive) in the test on Malme-3M; 29.7 µM (inactive) in the test on EKVX. Also, the GI50 in the test with HCT-116 was 17.8 µM (inactive).

Consider `O=C1CC2(CCNCC2)C(=O)N1N1CCCC1`, for which the GI50 in the test on SK-OV-3, in the test on HL-60, in the test with TK-10, in the test on ACHN, in the test with MOLT-4 and with SNB-19 was > 100 µM (inactive) throughout. For the same compound, the GI50 in the test with CCRF-CEM, in the test with SW-620, in the test with CAKI-1, with SK-MEL-5, with IGROV-1 and in the test with NCI-H522 was > 100 µM (inactive) throughout. Besides, the GI50 with DU-145, in the test with COLO 205, with SF-295, in the test on Malme-3M, in the test with EKVX and in the test with HCT-116 was > 100 µM (inactive) each time.

`N#CCC(=O)Nc1cccc(C(F)(F)F)c1`: the GI50 in the test on SK-OV-3, in the test on HL-60, with SNB-75, in the test with TK-10, with ACHN and with MOLT-4 was > 100 µM (inactive) in each case. Further, the GI50 in the test with SNB-19, in the test with CCRF-CEM, in the test on SW-620, in the test on CAKI-1, with A498 and in the test with SK-MEL-5 was > 100 µM (inactive) throughout. The GI50 in the test on IGROV-1, in the test with NCI-H522, in the test with COLO 205, with SF-295, in the test on Malme-3M and in the test on EKVX was > 100 µM (inactive) throughout. In the test on HCT-116, the GI50 was > 100 µM (inactive).

`COc1ccc(C2c3cc4c(cc3OC(N3CCCCC3)C2C)OCO4)cc1` (centres undefined): the GI50 in the test on SNB-75 was 35.6 µM (inactive); in the test with TK-10, > 100 µM (inactive); with ACHN, 41.2 µM (inactive); in the test with MOLT-4, > 100 µM (inactive); in the test with SNB-19, > 100 µM (inactive); in the test on CCRF-CEM, > 100 µM (inactive). Also, the GI50 is > 100 µM (inactive) in the test with SW-620; 36.6 µM (inactive) in the test on CAKI-1; > 100 µM (inactive) in the test on SK-MEL-5; > 100 µM (inactive) in the test on IGROV-1; 83.6 µM (inactive) in the test with NCI-H522; > 100 µM (inactive) in the test on DU-145. Besides, the GI50 in the test on COLO 205 is > 100 µM (inactive); in the test with SF-295, 54.6 µM (inactive); in the test on EKVX it was > 100 µM (inactive); in the test with HCT-116, > 100 µM (inactive).
